{"source": "the kinase profiling compilation of Christmann-Franck et al. (2016)", "assay_in_all_cases": "KINOMEscan competition binding", "conditions_in_all_cases": "compound 10.0 µM", "key": {"[1]": {"target": "NUAK2 (human) (UniProt Q9H093)"}, "[2]": {"target": "LATS2 (human) (UniProt Q9NRM7)"}, "[3]": {"target": "PTK2B (human) (UniProt Q14289)"}, "[4]": {"target": "EPHA8 (human) (UniProt P29322)"}, "[5]": {"target": "ULK3 (human) (UniProt Q6PHR2)"}, "[6]": {"target": "PAK4 (human) (UniProt O96013)", "sequence (O96013 whole entry, looked up)": "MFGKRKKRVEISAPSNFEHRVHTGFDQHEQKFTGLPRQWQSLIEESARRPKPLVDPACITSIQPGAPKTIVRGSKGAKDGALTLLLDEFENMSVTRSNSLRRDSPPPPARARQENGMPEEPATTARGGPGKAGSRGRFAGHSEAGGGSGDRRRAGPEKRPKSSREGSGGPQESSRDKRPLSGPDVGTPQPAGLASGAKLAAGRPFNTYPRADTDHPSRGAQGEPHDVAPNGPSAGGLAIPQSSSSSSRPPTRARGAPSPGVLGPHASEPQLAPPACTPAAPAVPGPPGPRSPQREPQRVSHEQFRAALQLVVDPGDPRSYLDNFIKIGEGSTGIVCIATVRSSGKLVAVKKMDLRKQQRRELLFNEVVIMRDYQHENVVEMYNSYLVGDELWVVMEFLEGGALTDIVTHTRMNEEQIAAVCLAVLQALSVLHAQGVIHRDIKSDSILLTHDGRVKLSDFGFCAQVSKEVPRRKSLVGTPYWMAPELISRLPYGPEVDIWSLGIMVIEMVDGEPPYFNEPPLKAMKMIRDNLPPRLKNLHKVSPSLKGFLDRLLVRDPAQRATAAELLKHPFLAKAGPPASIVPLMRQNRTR"}, "[7]": {"target": "ACVRL1 (human) (UniProt P37023)"}, "[8]": {"target": "ADCK3 (human) (UniProt Q8NI60)"}, "[9]": {"target": "CAMK1G (human) (UniProt Q96NX5)"}, "[10]": {"target": "PRKCE (human) (UniProt Q02156)", "sequence (Q02156 whole entry, looked up)": "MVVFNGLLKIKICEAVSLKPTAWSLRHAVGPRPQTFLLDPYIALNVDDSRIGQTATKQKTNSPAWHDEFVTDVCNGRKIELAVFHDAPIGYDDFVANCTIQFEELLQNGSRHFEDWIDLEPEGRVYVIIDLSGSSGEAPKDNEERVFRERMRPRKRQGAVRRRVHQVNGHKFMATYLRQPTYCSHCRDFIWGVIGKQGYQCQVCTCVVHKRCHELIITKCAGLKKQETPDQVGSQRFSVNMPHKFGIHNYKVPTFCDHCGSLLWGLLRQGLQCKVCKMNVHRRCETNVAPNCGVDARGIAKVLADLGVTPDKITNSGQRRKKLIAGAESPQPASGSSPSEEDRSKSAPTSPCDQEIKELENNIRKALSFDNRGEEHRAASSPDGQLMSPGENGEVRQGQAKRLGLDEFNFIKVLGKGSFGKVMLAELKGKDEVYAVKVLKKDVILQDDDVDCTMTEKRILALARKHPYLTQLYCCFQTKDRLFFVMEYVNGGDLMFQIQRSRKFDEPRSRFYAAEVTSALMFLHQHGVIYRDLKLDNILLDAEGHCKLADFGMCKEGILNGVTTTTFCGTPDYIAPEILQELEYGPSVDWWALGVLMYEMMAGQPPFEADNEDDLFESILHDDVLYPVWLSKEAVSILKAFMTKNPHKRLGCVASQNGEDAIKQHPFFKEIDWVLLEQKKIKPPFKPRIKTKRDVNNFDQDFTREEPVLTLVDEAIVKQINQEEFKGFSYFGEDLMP"}, "[11]": {"target": "PAK3 (human) (UniProt O75914)"}, "[12]": {"target": "CIT (human) (UniProt O14578)"}, "[13]": {"target": "MKNK2 (human) (UniProt Q9HBH9)", "sequence (Q9HBH9 whole entry, looked up)": "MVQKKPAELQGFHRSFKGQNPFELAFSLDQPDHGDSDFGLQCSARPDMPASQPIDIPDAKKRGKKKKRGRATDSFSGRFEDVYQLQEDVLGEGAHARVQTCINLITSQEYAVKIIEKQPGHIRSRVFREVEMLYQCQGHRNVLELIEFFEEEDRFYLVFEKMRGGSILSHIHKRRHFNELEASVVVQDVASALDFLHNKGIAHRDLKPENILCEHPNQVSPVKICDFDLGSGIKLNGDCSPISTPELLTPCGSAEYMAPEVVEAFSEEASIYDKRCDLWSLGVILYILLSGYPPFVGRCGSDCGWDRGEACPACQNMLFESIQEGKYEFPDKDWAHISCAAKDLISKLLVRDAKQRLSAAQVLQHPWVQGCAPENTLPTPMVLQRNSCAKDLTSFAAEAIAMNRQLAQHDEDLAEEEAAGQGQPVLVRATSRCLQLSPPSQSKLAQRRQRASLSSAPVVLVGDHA"}, "[14]": {"target": "PAK7 (human) (UniProt Q9P286)"}, "[15]": {"target": "TLK2 (human) (UniProt Q86UE8)", "sequence (Q86UE8 whole entry, looked up)": "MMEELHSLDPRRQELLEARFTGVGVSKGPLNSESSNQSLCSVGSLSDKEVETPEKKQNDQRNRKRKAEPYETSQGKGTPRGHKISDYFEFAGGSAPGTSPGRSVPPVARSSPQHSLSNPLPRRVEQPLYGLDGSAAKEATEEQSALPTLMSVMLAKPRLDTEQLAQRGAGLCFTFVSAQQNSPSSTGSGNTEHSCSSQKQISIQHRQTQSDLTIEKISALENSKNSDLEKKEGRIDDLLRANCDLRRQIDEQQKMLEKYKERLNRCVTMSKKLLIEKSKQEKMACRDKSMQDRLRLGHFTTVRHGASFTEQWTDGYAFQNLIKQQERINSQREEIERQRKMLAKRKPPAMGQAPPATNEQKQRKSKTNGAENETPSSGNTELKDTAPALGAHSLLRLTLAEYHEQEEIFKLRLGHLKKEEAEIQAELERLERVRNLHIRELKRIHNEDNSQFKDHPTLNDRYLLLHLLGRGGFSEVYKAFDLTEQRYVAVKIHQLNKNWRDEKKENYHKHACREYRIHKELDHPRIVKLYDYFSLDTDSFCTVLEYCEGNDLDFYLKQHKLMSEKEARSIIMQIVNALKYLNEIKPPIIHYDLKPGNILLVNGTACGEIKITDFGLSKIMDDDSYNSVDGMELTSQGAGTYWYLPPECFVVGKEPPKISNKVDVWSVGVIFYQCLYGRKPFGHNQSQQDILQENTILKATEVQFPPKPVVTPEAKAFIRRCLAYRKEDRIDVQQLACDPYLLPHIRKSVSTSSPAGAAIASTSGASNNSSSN"}, "[16]": {"target": "SGK110 (human) (UniProt P0C264)", "sequence (P0C264 whole entry, looked up)": "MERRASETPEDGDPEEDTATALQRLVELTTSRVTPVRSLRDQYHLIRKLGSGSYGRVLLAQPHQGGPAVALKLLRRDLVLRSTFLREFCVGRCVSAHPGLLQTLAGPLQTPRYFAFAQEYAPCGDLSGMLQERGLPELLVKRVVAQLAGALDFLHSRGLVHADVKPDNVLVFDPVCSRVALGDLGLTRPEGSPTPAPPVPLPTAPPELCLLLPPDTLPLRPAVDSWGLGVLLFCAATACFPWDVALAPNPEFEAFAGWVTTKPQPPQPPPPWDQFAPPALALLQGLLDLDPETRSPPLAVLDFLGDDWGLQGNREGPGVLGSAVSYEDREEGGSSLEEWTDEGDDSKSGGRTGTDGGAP"}, "[17]": {"target": "PDGFRA (human) (UniProt P16234)"}, "[18]": {"target": "MAPK12 (human) (UniProt P53778)"}, "[19]": {"target": "TIE1 (human) (UniProt P35590)"}, "[20]": {"target": "PRKG1 (human) (UniProt Q13976)"}, "[21]": {"target": "FLT1 (human) (UniProt P17948)"}, "[22]": {"target": "BTK (human) (UniProt Q06187)"}, "[23]": {"target": "ULK2 (human) (UniProt Q8IYT8)"}, "[24]": {"target": "CAMK2G (human) (UniProt Q13555)"}, "[25]": {"target": "AKT2 (human) (UniProt P31751)"}, "[26]": {"target": "SRMS (human) (UniProt Q9H3Y6)"}, "[27]": {"target": "PRKD3 (human) (UniProt O94806)", "sequence (O94806 whole entry, looked up)": "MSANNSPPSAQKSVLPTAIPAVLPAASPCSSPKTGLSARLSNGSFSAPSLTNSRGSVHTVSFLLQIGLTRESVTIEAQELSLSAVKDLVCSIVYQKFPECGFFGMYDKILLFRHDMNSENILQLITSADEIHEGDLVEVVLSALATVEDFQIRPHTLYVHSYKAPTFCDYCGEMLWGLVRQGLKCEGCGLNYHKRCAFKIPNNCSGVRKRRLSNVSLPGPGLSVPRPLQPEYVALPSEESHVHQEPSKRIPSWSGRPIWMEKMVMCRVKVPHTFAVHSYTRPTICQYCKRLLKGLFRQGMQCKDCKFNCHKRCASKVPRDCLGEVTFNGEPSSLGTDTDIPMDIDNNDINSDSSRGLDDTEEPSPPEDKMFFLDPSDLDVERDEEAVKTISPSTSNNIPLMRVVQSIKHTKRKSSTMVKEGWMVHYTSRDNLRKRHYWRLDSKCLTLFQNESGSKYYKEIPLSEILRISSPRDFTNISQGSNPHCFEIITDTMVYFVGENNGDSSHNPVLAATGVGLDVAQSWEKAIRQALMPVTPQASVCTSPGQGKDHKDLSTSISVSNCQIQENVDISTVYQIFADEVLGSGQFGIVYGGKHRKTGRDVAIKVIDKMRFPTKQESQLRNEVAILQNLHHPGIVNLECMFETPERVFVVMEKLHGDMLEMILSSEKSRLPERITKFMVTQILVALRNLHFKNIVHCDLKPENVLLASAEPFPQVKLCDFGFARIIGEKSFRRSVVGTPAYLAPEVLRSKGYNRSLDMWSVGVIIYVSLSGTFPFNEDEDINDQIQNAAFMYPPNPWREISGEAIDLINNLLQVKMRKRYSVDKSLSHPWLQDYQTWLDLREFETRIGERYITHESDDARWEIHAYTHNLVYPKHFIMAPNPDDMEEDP"}, "[28]": {"target": "TAOK3 (human) (UniProt Q9H2K8)"}, "[29]": {"target": "MAP4K5 (human) (UniProt Q9Y4K4)", "sequence (Q9Y4K4 whole entry, looked up)": "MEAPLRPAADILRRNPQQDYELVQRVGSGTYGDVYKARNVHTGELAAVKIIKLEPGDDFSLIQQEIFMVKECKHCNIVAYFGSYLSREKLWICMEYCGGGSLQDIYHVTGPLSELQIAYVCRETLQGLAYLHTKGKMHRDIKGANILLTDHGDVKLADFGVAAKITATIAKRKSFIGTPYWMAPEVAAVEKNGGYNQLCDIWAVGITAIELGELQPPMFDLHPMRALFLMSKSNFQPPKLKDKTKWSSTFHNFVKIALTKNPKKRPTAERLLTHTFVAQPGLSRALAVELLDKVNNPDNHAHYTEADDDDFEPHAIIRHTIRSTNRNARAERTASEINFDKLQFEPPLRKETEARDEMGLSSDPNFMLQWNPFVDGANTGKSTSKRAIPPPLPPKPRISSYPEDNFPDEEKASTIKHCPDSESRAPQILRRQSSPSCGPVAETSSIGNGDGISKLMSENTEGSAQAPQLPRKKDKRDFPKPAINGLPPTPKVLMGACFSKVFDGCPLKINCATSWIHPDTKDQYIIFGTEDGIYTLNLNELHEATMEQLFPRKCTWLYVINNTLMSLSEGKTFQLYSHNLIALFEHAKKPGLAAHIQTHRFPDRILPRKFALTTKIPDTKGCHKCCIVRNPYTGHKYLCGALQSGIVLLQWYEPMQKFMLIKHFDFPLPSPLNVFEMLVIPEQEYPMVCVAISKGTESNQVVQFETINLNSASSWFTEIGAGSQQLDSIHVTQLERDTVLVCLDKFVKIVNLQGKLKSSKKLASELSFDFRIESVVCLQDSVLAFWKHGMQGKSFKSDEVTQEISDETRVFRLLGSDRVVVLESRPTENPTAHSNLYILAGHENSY"}, "[30]": {"target": "MAPK15 (human) (UniProt Q8TD08)"}, "[31]": {"target": "MAPK3 (human) (UniProt P27361)", "sequence (P27361 whole entry, looked up)": "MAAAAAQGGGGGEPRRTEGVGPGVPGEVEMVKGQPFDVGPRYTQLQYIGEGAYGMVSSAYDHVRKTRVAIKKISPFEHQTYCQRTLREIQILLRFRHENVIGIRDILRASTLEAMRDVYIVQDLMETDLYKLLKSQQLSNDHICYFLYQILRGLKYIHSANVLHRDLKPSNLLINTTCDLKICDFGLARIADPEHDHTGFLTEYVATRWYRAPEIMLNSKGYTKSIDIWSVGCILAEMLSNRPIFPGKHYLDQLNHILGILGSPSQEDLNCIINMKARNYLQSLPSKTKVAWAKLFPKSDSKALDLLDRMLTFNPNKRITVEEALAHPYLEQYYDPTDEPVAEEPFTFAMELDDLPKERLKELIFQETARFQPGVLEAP"}, "[32]": {"target": "CLK3 (human) (UniProt P49761)"}, "[33]": {"target": "MAP3K15 (human) (UniProt Q6ZN16)"}, "[34]": {"target": "CDKL3 (human) (UniProt Q8IVW4)"}, "[35]": {"target": "GRK7 (human) (UniProt Q8WTQ7)"}, "[36]": {"target": "MAST1 (human) (UniProt Q9Y2H9)"}, "[37]": {"target": "PRPF4B (human) (UniProt Q13523)"}, "[38]": {"target": "MAK (human) (UniProt P20794)"}}}
{"compound": "C=CC(=O)Nc1ccc(CN(C(=O)Nc2c(Cl)c(OC)cc(OC)c2Cl)c2cc(Nc3ccc(N4CCN(C)CC4)cc3)ncn2)cc1", "values": [{"measurement": "kinase still bound, per cent of control", "setting": "[1]", "value": 100, "unit": "%"}, {"measurement": "kinase still bound, per cent of control", "setting": "[2]", "value": 100, "unit": "%"}, {"measurement": "kinase still bound, per cent of control", "setting": "[3]", "value": 100, "unit": "%"}, {"measurement": "kinase still bound, per cent of control", "setting": "[4]", "value": 100, "unit": "%"}, {"measurement": "kinase still bound, per cent of control", "setting": "[5]", "value": 100, "unit": "%"}, {"measurement": "kinase still bound, per cent of control", "setting": "[6]", "value": 100, "unit": "%"}, {"measurement": "kinase still bound, per cent of control", "setting": "[7]", "value": 100, "unit": "%"}, {"measurement": "kinase still bound, per cent of control", "setting": "[8]", "value": 100, "unit": "%"}, {"measurement": "kinase still bound, per cent of control", "setting": "[9]", "value": 100, "unit": "%"}, {"measurement": "kinase still bound, per cent of control", "setting": "[10]", "value": 100, "unit": "%"}, {"measurement": "kinase still bound, per cent of control", "setting": "[11]", "value": 100, "unit": "%"}, {"measurement": "kinase still bound, per cent of control", "setting": "[12]", "value": 100, "unit": "%"}, {"measurement": "kinase still bound, per cent of control", "setting": "[13]", "value": 100, "unit": "%"}, {"measurement": "kinase still bound, per cent of control", "setting": "[14]", "value": 100, "unit": "%"}, {"measurement": "kinase still bound, per cent of control", "setting": "[15]", "value": 100, "unit": "%"}, {"measurement": "kinase still bound, per cent of control", "setting": "[16]", "value": 100, "unit": "%"}, {"measurement": "kinase still bound, per cent of control", "setting": "[17]", "value": 2.2, "unit": "%"}, {"measurement": "kinase still bound, per cent of control", "setting": "[18]", "value": 100, "unit": "%"}, {"measurement": "kinase still bound, per cent of control", "setting": "[19]", "value": 0, "unit": "%"}, {"measurement": "kinase still bound, per cent of control", "setting": "[20]", "value": 100, "unit": "%"}, {"measurement": "kinase still bound, per cent of control", "setting": "[21]", "value": 0.3, "unit": "%"}, {"measurement": "kinase still bound, per cent of control", "setting": "[22]", "value": 1.2, "unit": "%"}, {"measurement": "kinase still bound, per cent of control", "setting": "[23]", "value": 100, "unit": "%"}, {"measurement": "kinase still bound, per cent of control", "setting": "[24]", "value": 100, "unit": "%"}, {"measurement": "kinase still bound, per cent of control", "setting": "[25]", "value": 100, "unit": "%"}, {"measurement": "kinase still bound, per cent of control", "setting": "[26]", "value": 100, "unit": "%"}, {"measurement": "kinase still bound, per cent of control", "setting": "[27]", "value": 100, "unit": "%"}, {"measurement": "kinase still bound, per cent of control", "setting": "[28]", "value": 0.9, "unit": "%"}, {"measurement": "kinase still bound, per cent of control", "setting": "[29]", "value": 2.3, "unit": "%"}, {"measurement": "kinase still bound, per cent of control", "setting": "[30]", "value": 100, "unit": "%"}, {"measurement": "kinase still bound, per cent of control", "setting": "[31]", "value": 100, "unit": "%"}, {"measurement": "kinase still bound, per cent of control", "setting": "[32]", "value": 100, "unit": "%"}]}
{"compound": "CS(=O)(=O)N1CCN(Cc2cc3nc(-c4cccc5[nH]ncc45)nc(N4CCOCC4)c3s2)CC1", "values": [{"measurement": "kinase still bound, per cent of control", "setting": "[1]", "value": 100, "unit": "%"}, {"measurement": "kinase still bound, per cent of control", "setting": "[2]", "value": 100, "unit": "%"}, {"measurement": "kinase still bound, per cent of control", "setting": "[3]", "value": 100, "unit": "%"}, {"measurement": "kinase still bound, per cent of control", "setting": "[4]", "value": 100, "unit": "%"}, {"measurement": "kinase still bound, per cent of control", "setting": "[5]", "value": 100, "unit": "%"}, {"measurement": "kinase still bound, per cent of control", "setting": "[6]", "value": 100, "unit": "%"}, {"measurement": "kinase still bound, per cent of control", "setting": "[33]", "value": 100, "unit": "%"}, {"measurement": "kinase still bound, per cent of control", "setting": "[7]", "value": 100, "unit": "%"}, {"measurement": "kinase still bound, per cent of control", "setting": "[34]", "value": 100, "unit": "%"}, {"measurement": "kinase still bound, per cent of control", "setting": "[8]", "value": 100, "unit": "%"}, {"measurement": "kinase still bound, per cent of control", "setting": "[10]", "value": 100, "unit": "%"}, {"measurement": "kinase still bound, per cent of control", "setting": "[11]", "value": 100, "unit": "%"}, {"measurement": "kinase still bound, per cent of control", "setting": "[12]", "value": 100, "unit": "%"}, {"measurement": "kinase still bound, per cent of control", "setting": "[35]", "value": 100, "unit": "%"}, {"measurement": "kinase still bound, per cent of control", "setting": "[13]", "value": 100, "unit": "%"}, {"measurement": "kinase still bound, per cent of control", "setting": "[36]", "value": 100, "unit": "%"}, {"measurement": "kinase still bound, per cent of control", "setting": "[14]", "value": 100, "unit": "%"}, {"measurement": "kinase still bound, per cent of control", "setting": "[15]", "value": 100, "unit": "%"}, {"measurement": "kinase still bound, per cent of control", "setting": "[16]", "value": 100, "unit": "%"}, {"measurement": "kinase still bound, per cent of control", "setting": "[37]", "value": 100, "unit": "%"}, {"measurement": "kinase still bound, per cent of control", "setting": "[17]", "value": 0, "unit": "%"}, {"measurement": "kinase still bound, per cent of control", "setting": "[18]", "value": 100, "unit": "%"}, {"measurement": "kinase still bound, per cent of control", "setting": "[20]", "value": 100, "unit": "%"}, {"measurement": "kinase still bound, per cent of control", "setting": "[21]", "value": 100, "unit": "%"}, {"measurement": "kinase still bound, per cent of control", "setting": "[38]", "value": 100, "unit": "%"}, {"measurement": "kinase still bound, per cent of control", "setting": "[22]", "value": 100, "unit": "%"}, {"measurement": "kinase still bound, per cent of control", "setting": "[23]", "value": 100, "unit": "%"}, {"measurement": "kinase still bound, per cent of control", "setting": "[24]", "value": 100, "unit": "%"}, {"measurement": "kinase still bound, per cent of control", "setting": "[25]", "value": 100, "unit": "%"}, {"measurement": "kinase still bound, per cent of control", "setting": "[26]", "value": 100, "unit": "%"}, {"measurement": "kinase still bound, per cent of control", "setting": "[27]", "value": 100, "unit": "%"}, {"measurement": "kinase still bound, per cent of control", "setting": "[28]", "value": 100, "unit": "%"}, {"measurement": "kinase still bound, per cent of control", "setting": "[29]", "value": 100, "unit": "%"}, {"measurement": "kinase still bound, per cent of control", "setting": "[30]", "value": 100, "unit": "%"}, {"measurement": "kinase still bound, per cent of control", "setting": "[31]", "value": 100, "unit": "%"}]}
